Calls of active or inactive are those of the source.
How the values were obtained:
[1] = target: Protein-tyrosine kinase 6 (Homo sapiens, UniProt Q13882)
[2] = target: Cyclin-dependent kinase 7 (Homo sapiens, UniProt P50613)
[3] = target: T1, Glycogen phosphorylase, liver form (Homo sapiens, UniProt P06737); assay type: subcellular, K-562, COLO 205, SK-N-BE(2) and MV-4-11, Cell lysate; conditions: read-out: Kd apparent
T1 sequence (P06737 whole entry): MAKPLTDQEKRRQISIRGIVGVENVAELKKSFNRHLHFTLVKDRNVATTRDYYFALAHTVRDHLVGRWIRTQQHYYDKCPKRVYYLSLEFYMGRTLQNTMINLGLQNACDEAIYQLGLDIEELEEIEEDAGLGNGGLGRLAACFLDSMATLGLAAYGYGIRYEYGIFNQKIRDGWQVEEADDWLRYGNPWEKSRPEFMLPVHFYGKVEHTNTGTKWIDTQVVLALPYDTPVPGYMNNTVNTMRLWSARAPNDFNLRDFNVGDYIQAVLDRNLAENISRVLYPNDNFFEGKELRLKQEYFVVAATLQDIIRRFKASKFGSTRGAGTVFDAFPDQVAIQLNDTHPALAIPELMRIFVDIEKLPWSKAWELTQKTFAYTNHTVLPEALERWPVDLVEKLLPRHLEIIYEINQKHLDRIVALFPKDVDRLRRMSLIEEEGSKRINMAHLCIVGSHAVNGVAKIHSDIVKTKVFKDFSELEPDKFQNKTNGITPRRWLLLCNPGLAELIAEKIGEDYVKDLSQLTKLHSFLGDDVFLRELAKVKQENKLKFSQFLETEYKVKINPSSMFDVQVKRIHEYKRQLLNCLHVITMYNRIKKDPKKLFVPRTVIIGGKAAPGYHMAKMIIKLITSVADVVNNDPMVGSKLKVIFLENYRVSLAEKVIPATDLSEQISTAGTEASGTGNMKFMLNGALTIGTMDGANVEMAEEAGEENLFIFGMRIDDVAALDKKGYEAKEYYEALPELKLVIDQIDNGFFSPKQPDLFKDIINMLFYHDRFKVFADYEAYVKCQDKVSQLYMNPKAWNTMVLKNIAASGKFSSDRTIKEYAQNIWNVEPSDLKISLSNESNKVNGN

[4] = target: Casein kinase I isoform epsilon (Homo sapiens, UniProt P49674)
[5] = target: S-adenosylmethionine synthase isoform type-2 (Homo sapiens, UniProt P31153)
[6] = target: Tyrosine-protein kinase SYK (Homo sapiens, UniProt P43405)
Actin-related protein 2 = Actin-related protein 2 (Homo sapiens, UniProt P61160)
Aurora kinase B = Aurora kinase B (Homo sapiens, UniProt Q96GD4)
[7] = target: T2, Serine/threonine-protein kinase Nek1 (Homo sapiens, UniProt Q96PY6)
T2 sequence (Q96PY6 whole entry): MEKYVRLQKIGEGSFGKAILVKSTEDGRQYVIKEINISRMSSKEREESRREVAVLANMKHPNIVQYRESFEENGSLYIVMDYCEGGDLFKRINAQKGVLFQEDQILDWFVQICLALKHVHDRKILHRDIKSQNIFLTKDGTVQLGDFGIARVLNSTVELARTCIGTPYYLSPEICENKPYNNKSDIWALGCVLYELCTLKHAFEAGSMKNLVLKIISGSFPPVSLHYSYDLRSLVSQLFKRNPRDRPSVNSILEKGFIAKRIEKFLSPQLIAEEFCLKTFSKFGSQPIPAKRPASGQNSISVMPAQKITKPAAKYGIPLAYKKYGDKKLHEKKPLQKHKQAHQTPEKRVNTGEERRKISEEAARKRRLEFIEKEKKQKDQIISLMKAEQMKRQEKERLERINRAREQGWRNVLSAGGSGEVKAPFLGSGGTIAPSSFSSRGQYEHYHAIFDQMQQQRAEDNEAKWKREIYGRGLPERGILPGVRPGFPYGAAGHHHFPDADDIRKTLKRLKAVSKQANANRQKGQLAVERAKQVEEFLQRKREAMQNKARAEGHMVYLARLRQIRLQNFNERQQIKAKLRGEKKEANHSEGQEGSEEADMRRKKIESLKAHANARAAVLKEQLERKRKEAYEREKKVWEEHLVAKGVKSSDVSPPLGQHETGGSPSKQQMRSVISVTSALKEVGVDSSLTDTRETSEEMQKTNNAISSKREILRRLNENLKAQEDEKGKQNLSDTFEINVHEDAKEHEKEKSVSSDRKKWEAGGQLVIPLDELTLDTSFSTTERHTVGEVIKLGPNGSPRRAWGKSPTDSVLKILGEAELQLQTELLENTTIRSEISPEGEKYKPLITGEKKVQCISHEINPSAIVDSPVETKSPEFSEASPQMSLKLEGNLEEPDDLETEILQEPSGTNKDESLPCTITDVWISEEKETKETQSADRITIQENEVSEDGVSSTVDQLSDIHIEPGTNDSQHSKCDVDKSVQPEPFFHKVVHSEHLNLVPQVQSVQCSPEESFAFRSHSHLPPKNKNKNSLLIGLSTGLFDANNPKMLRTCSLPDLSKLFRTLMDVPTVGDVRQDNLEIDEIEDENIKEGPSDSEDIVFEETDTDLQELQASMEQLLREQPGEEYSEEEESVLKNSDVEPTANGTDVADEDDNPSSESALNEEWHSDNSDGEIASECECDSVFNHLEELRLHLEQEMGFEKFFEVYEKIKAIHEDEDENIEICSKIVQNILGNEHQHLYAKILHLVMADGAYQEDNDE

[8] = target: Inosine-5'-monophosphate dehydrogenase 2 (Homo sapiens, UniProt P12268)
[9] = target: Cyclin-dependent kinase 12 (Homo sapiens, UniProt Q9NYV4)
[10] = target: DnaJ homolog subfamily A member 1 (Homo sapiens, UniProt P31689)
Myosin-10 = Myosin-10 (Homo sapiens, UniProt P35580)
Note: in the data inactive means no Kd found up to 30 µM.

Sequence of Cyclin-dependent kinase 7 (P50613 whole entry): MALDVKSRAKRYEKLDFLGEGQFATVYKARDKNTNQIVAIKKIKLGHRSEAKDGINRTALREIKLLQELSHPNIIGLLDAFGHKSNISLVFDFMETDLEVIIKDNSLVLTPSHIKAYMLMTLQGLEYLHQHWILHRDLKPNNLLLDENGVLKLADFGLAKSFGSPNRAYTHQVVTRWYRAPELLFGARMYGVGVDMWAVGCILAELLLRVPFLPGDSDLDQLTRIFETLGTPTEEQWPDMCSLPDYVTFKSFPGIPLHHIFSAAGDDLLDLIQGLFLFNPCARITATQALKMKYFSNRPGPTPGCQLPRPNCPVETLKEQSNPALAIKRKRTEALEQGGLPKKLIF
Sequence of S-adenosylmethionine synthase isoform type-2 (P31153 whole entry, canonical isoform): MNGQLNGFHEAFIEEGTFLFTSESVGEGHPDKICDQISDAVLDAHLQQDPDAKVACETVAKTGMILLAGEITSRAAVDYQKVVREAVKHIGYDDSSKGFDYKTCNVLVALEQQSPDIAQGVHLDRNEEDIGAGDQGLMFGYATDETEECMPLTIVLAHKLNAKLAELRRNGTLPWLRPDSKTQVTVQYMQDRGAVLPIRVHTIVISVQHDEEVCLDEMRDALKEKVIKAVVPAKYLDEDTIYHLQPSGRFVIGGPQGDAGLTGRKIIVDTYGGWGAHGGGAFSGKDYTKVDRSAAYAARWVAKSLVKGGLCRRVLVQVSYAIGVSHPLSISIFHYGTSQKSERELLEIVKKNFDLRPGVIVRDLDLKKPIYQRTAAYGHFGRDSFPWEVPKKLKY
Sequence of DnaJ homolog subfamily A member 1 (P31689 whole entry): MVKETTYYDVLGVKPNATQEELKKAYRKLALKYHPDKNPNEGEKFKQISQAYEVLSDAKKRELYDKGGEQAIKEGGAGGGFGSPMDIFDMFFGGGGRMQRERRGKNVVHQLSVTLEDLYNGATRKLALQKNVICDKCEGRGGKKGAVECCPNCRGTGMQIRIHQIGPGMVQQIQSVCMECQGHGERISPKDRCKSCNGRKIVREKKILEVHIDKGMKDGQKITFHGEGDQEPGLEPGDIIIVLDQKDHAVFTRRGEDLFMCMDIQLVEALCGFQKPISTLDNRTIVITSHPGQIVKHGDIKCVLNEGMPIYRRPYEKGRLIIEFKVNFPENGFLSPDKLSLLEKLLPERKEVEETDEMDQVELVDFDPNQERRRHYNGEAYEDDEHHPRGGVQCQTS
Sequence of Myosin-10 (P35580 whole entry): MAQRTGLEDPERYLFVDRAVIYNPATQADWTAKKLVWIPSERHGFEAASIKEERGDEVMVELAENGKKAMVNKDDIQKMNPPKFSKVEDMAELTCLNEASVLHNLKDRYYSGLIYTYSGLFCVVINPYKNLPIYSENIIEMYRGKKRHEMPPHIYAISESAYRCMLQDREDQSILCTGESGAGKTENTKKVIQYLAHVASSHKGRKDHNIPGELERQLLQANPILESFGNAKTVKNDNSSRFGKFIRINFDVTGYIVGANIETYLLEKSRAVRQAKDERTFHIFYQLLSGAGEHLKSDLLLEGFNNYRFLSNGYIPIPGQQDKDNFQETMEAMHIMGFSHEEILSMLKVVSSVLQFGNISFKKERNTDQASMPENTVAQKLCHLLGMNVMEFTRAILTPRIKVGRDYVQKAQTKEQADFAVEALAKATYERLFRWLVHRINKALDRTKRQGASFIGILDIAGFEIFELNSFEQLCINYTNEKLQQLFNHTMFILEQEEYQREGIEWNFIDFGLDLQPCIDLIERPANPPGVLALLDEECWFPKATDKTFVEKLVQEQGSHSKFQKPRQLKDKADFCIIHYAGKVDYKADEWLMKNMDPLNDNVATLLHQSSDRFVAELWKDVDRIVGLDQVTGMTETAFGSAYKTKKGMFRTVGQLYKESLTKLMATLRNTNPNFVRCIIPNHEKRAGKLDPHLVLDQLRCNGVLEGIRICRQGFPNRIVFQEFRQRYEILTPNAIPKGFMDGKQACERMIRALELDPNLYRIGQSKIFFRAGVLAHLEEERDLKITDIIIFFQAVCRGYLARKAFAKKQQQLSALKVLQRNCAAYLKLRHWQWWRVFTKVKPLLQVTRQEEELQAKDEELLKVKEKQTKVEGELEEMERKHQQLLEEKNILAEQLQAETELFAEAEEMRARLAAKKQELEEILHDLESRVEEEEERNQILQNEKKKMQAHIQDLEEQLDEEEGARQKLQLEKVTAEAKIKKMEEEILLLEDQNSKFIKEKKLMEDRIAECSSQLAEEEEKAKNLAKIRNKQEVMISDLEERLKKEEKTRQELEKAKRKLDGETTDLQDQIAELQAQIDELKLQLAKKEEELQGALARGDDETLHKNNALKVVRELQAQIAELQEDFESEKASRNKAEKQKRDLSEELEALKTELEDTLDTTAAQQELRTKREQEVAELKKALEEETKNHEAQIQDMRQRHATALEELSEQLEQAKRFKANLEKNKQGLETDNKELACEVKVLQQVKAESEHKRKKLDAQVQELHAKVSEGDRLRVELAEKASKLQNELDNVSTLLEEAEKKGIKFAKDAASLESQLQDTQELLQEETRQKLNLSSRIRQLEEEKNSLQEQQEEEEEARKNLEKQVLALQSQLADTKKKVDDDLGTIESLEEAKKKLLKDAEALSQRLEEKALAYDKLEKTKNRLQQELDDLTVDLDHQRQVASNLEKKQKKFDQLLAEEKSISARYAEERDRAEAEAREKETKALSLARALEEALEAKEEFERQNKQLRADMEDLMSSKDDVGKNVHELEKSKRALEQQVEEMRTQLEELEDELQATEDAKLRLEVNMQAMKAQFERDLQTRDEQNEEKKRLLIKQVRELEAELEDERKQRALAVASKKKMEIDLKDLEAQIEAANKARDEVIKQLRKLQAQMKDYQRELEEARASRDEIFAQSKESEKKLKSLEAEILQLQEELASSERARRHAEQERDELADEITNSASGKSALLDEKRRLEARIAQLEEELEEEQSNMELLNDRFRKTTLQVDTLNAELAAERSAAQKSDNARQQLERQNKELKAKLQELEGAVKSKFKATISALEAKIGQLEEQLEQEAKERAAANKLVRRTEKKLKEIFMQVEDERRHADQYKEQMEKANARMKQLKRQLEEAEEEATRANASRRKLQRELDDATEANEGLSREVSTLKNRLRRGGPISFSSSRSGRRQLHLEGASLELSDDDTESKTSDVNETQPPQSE
Sequence of Casein kinase I isoform epsilon (P49674 whole entry, canonical isoform): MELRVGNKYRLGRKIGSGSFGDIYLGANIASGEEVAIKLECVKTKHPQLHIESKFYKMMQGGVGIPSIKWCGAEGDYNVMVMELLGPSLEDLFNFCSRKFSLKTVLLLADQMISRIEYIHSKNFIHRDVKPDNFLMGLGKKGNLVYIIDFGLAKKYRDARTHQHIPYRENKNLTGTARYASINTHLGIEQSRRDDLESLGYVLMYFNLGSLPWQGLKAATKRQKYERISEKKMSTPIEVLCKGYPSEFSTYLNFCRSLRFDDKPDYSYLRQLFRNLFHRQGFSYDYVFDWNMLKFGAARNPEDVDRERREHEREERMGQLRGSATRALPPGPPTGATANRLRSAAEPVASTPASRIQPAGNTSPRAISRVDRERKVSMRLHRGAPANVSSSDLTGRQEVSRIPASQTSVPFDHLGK
Sequence of Aurora kinase B (Q96GD4 whole entry): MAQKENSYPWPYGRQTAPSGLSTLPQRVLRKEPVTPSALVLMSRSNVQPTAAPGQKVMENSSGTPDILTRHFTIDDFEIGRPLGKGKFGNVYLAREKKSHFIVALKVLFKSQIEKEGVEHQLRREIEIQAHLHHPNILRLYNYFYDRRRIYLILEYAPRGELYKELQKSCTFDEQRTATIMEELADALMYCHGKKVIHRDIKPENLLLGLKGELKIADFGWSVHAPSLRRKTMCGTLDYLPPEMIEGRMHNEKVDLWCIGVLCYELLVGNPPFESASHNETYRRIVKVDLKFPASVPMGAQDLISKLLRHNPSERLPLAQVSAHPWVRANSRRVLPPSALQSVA
Sequence of Protein-tyrosine kinase 6 (Q13882 whole entry): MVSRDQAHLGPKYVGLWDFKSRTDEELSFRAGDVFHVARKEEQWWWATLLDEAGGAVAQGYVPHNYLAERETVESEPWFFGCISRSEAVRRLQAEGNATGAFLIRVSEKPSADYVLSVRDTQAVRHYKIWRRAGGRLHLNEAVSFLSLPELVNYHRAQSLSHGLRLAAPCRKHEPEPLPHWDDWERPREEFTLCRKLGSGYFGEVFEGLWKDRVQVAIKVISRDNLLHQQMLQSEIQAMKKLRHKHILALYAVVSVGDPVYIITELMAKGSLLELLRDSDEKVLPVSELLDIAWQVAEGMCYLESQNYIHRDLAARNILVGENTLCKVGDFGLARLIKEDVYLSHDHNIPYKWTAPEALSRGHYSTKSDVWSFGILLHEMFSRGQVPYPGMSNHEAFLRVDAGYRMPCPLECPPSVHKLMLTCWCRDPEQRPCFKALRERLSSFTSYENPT

SMILES | Kd [1] | Kd [2] | Kd [3] | Kd [4] | Kd [5] | Kd [6] | Kd (Actin-related protein 2) | Kd (Aurora kinase B) | Kd [7] | Kd [8] | Kd [9] | Kd [10] | Kd (Myosin-10)
COCc1c(-c2ccc(NC(=O)Nc3cc(C(F)(F)F)ccc3F)c(F)c2)c2c(N)ncnn2c1CN1CCOCC1 | > 30 µM (inactive) | > 30 µM (inactive) | > 30 µM (inactive) | > 30 µM (inactive) | > 30 µM (inactive) | > 30 µM (inactive) | > 30 µM (inactive) | > 30 µM (inactive) | > 30 µM (inactive) | > 30 µM (inactive) | > 30 µM (inactive) | > 30 µM (inactive) | > 30 µM (inactive)
COCC(=O)NC/C=C/c1ccc2ncnc(Nc3ccc(Oc4ccc(C)nc4)c(C)c3)c2c1 [CP-724714] | > 30 µM (inactive) | > 30 µM (inactive) | > 30 µM (inactive) | > 30 µM (inactive) | > 30 µM (inactive) | > 30 µM (inactive) | > 30 µM (inactive) | > 30 µM (inactive) | > 30 µM (inactive) | > 30 µM (inactive) | > 30 µM (inactive) | > 30 µM (inactive) | > 30 µM (inactive)
CC(C)(C)c1nc(-c2cccc(NS(=O)(=O)c3c(F)cccc3F)c2F)c(-c2ccnc(N)n2)s1 [DABRAFENIB] | 1.41 µM (active) | – | > 30 µM (inactive) | > 30 µM (inactive) | > 30 µM (inactive) | > 30 µM (inactive) | > 30 µM (inactive) | > 30 µM (inactive) | – | > 30 µM (inactive) | > 30 µM (inactive) | > 30 µM (inactive) | > 30 µM (inactive)
C[C@@H](Oc1cc(-n2cnc3ccc(CN4CCN(C)CC4)cc32)sc1C(N)=O)c1ccccc1C(F)(F)F [GSK-461364] | – | – | > 30 µM (inactive) | – | > 30 µM (inactive) | – | > 30 µM (inactive) | – | – | > 30 µM (inactive) | > 30 µM (inactive) | > 30 µM (inactive) | > 30 µM (inactive)
CNC(=O)c1cccc2cc(Oc3ccnc4cc(OCC5(N)CC5)c(OC)cc34)ccc12 [LUCITANIB] | > 30 µM (inactive) | > 30 µM (inactive) | > 30 µM (inactive) | > 30 µM (inactive) | > 30 µM (inactive) | > 30 µM (inactive) | > 30 µM (inactive) | 22.9 µM (active) | > 30 µM (inactive) | > 30 µM (inactive) | > 30 µM (inactive) | > 30 µM (inactive) | > 30 µM (inactive)
CNC(=O)c1cc(Oc2ccc(NC(=O)Nc3cc(C(C)(C)C)nn3-c3ccc4ncccc4c3)c(F)c2)ccn1 [REBASTINIB] | – | > 30 µM (inactive) | > 30 µM (inactive) | > 30 µM (inactive) | – | 1.83 µM (active) | > 30 µM (inactive) | > 30 µM (inactive) | > 30 µM (inactive) | > 30 µM (inactive) | > 30 µM (inactive) | > 30 µM (inactive) | > 30 µM (inactive)

Second part, the compound after the results:

Kd [1] | Kd [2] | Kd [3] | Kd [4] | Kd [5] | Kd [6] | Kd (Actin-related protein 2) | Kd (Aurora kinase B) | Kd [7] | Kd [8] | Kd [9] | Kd [10] | Kd (Myosin-10) | SMILES
– | – | > 30 µM (inactive) | 1.47 µM | > 30 µM (inactive) | – | > 30 µM (inactive) | – | > 30 µM (inactive) | > 30 µM (inactive) | > 30 µM (inactive) | > 30 µM (inactive) | > 30 µM (inactive) | NC(=O)c1c(OCc2c(F)cc(Br)cc2F)nsc1NC(=O)NCCCCN1CCCC1 [OSI-632]
– | – | > 30 µM (inactive) | – | > 30 µM (inactive) | – | > 30 µM (inactive) | – | – | > 30 µM (inactive) | > 30 µM (inactive) | > 30 µM (inactive) | > 30 µM (inactive) | N#CC[C@H](C1CCCC1)n1cc(-c2ncnc3[nH]ccc23)cn1 [RUXOLITINIB]
0.18 µM (active) | 0.205 µM (active) | > 30 µM (inactive) | > 30 µM (inactive) | > 30 µM (inactive) | 4.66 µM (active) | > 30 µM (inactive) | 0.044 µM (active) | > 30 µM (inactive) | – | > 30 µM (inactive) | > 30 µM (inactive) | > 30 µM (inactive) | CCS(=O)(=O)c1cccc(-c2cc(C(=O)NC3CCN(C)CC3)c(C)c3[nH]c4ncc(C)cc4c23)c1 [TAK-901]
